{"source": "patent US7893289B2", "about": "“Adamantanamines and neramexane salts of thiomolybdic and thiotungstic acids” (SSV Therapeutics, Inc., priority 2007, dated 2011)", "key": {"[1]": {"tested_on": "NMDA receptor", "experiment": "Blockage of NMDA-induced seizure activity and lethality in mice pretreated with the antagonist", "assay_type": "in vivo", "details": "for mice survived following NMDA induced seizures: male CD-1 mice, groups of 5, sc 20 min before NMDA 200 mg/kg IP, 4 h observation, highest equivalent memantine dose (memantine hydrochloride 30 mg/kg sc); for protection in the NMDA-induced seizure/mortality test: sc, Example 4 at equivalent memantine dose, Examples 1 and 2 administered as suspensions", "text": "Briefly, the test measures blockage of seizure activity and lethality in mice produced by the administration of NMDA when pretreated with the antagonists. [see Leander, J. D., et al., Brain Res. 448, 115-120 (1988) and Parsons, C. G., et al., Neuropharmacol 34, 1239-1258; (1995)].\nTest protocol: Groups of 5 male CD-1 mice weighing 24±2 g were used. Male CD-1 (Crl.) mice were provided by BioLasco Taiwan (under Charles River Laboratories Technology License). Space allocations for animals were as follows: 29×18×13 cm for 5 mice. Mice were maintained in a controlled temperature (22° C.-24° C.) and humidity (60%-80%) environment with 12 h light/dark cycles for at least one week in MDS Pharma Services—Taiwan Laboratory prior to use. Free access to standard lab chow for mice [MF-18 (Oriental Yeast Co., Ltd., Japan)] and RO water was granted. [All aspects of this work including housing, experimentation and disposal of animals were performed in general accordance with the Guide for the Care and Use of Laboratory Animals (National Academy Press, Washington, D.C., 1996).]\nTest substance was administered by subcutaneous (sc) injection 20 min before challenge with NMDA 200 mg/kg by intraperitoneal injection (IP). The animals were placed individually in glass jars and observed over a period of 4 h for presence of clonic convulsions, tonic convulsions and mortality. The onset of clonic and tonic convulsions as well as death was recorded and incidence of clonic seizures, tonic seizures and death was reported. Inhibition of NMDA (200 mg/kg, IP)-induced tonic convulsions/mortality (mainly mortality) in more than 50 percent (>50%) of the 5 mice during the following 4 h indicates possible NMDA receptor antagonist activity. Memantine hydrochloride at 30 mg/kg sc was used as positive control.\nThe vehicle used for dissolution was 20% aqueous DMSO."}, "[2]": {"details": "ambient conditions in air and humidity, after 50 days; cited from earlier work"}, "[3]": {"experiment": "Solubility in the dosing vehicle (20% aqueous DMSO)", "assay_type": "physicochemical"}}, "data": [{"molecule": "CC12CC3CC(C)(C1)CC([NH3+])(C3)C2.CC12CC3CC(C)(C1)CC([NH3+])(C3)C2.[S]=[Mo](=[S])([S-])[S-]", "note": "[Example 3, Bis(1-ammonium-3,5-dimethyladamantane) tetrathiomolybdate]", "values": [{"measurement": "more effective than memantine at an equivalent dose", "setting": "[1]; NMDA-induced clonic seizures and mortality in mice, equivalent dose (30 mg)", "value": 40, "unit": "%"}, {"measurement": "mice survived following NMDA induced seizures", "setting": "[1]", "value": "4/5"}, {"measurement": "inhibition of NMDA-induced clonic seizures and mortality", "setting": "[1]; mice, sc pretreatment at three doses, NMDA 200 mg/kg IP", "value": "in a dose dependent manner"}, {"measurement": "time to seizures", "setting": "[1]; mice, highest equivalent memantine dose, compared with memantine", "value": "notably prolonged"}, {"measurement": "protection from tonic seizures", "setting": "[1]; mice, low, medium and high doses, without DMSO solvate, similar to the high dose of memantine", "value": "protected from tonic seizures"}]}, {"molecule": "CC1(C)CC(C)(C)CC(C)([NH3+])C1.CC1(C)CC(C)(C)CC(C)([NH3+])C1.[S]=[Mo](=[S])([S-])[S-]", "note": "[Example 4, Bis(1-ammonium-1,3,3,5,5-pentamethylcyclohexane)tetrathiomolybdate]", "values": [{"measurement": "protection in the NMDA-induced seizure/mortality test", "setting": "[1]; mice", "value": "complete protection"}]}, {"molecule": "[NH4+].[NH4+].[SH-].[SH-].[S]=[Mo]=[S]", "note": "[TM, diammonium tetrathiomolybdate]", "values": [{"measurement": "loss in activity", "setting": "[2]", "value": "~55", "unit": "%"}]}, {"molecule": "CC12CC3CC(C)(C1)CC(N)(C3)C2", "note": "[memantine, 1-amino-3,5-dimethyladamantane, reference compound]", "values": [{"measurement": "mice survived following NMDA induced seizures", "setting": "[1]", "value": "5/5"}]}, {"molecule": "Bis(1-methylammoniumadamantane) tetrathiomolybdate [Example 2]", "values": [{"measurement": "protection in the NMDA-induced seizure/mortality test", "setting": "[1]; mice", "value": "not protective"}, {"measurement": "solubility in the vehicle", "setting": "[3]", "value": "inadequate solubility"}]}]}
